# Measured values published in patent publication US4933368A, “N-phenylbenzamide derivatives” (Godecke Aktiengesellschaft, priority 1983, dated 1990).
# Entries after “also recorded” stand apart in the source; their conditions may differ.
# Columns and labels:
# Lewis Lung Tumor = assay: Lewis Lung Tumor, growth retardation in mice; type: in vivo, BCBA mice; settings: for Surviving Animals: n = 5
# Protocol: Preparation: As suspension freshly prepared
# before each administration
# Route of Oral, suspended in 0.8%
# administration: Methocel
# Volume: 0.01 per gram body weight
# daily for 9 days, if not
# Lewis Lung Tumor in BCBA mice. The procedure is the same as with osteosarcoma. The volume of the tumor was determined here at 800 mm^3 (=product of the diameters in three dimensions).
# growing hair follicle = assay: Antiproliferative activity upon topical administering to rats (hair growth); type: in vivo, Long Evans rats; settings: 0.5% solution in absolute ethanol, 5-10 mg/animal daily
# Protocol: No control standard known
# Preparation: Fresh before each
# Route of Topically by pipetting as
# administration: 0.5% solution in absolute
# Volume: 1 ml per animal and dose
# Tested dose: 5 mg/animal daily for 14 days
# 10 mg/animal daily for 7 days
# A protective collar is placed on male rats of the Long Evans strain, fur color "black-hooded." A rectangle measuring 3 cm long and 1.5 cm wide is marked with the aid of a template on the dorsal skin in the region of the black dorsal hair strip subsequent to shaving and cleansing. The test solution is slowly applied dropwise to this rectangle, so as to avoid it running off onto the surrounding skin. The solvent is applied in the same manner to the control animals. After 21 days of treatment the hair growth is assessed on the treated areas compared with the control areas.
# [1] = tested on: Mammary adenocarcinoma 25; assay: Mammary adenocarcinoma 25 (CCTM test); type: in vivo, mice
# Protocol: (§3) The CCTM assay assesses the antitumor activity of a test agent by measurement of the treatment-induced delay of tumor growth. Tumor growth delay is used because, unlike T/C type assays, the measured parameter is independent of time.
# (§4) Test animals are Fl hybrid mice derived from the inbred strain of tumor origin. After the required mice are randomized, they receive SC implants of either trocar fragments (30-50 mg) or appropriate dilutions of tumor brei on Day 0. Samples for each donor tumor or from the final brei are incubated in thioglycolate media as a check for gross contamination of the tumor material. After tumor inoculation, the test mice are rerandomized and distributed to test group as per the specific test protocol.
# Survival is checked daily for each test group. Both the number dead and the number living are counted and recorded. All dead mice are autopsied to ascertain the probable cause of death (drug or tumor). Clinical signs are observed and recorded for all test groups. Individual body weights are recorded at least weekly as directed in the specific test protocol. Each tumor is measured with calipers as per the protocol (usually two to three times/week).
# Any surviving animal with a tumor that is larger than the smallest lethal control tumor for two successive measurements will be sacrificed unless:
# This time may be calculated as:
# Td=tumor volume doubling time (days), calculated from the slope of a long-linear least squares fit of the growth curve between 63 and 1000 mg for each control tumor. The mean value for the control group is used for all other calculations that require Td.
# T,C=median time in days for the tumor in a given group to reach a predetermined evaluation size (usually 750 mg). T=treated groups/C=control group. These values are calculated by log/linear interpolation between the nearest tumor measurements on either side of the evaluation size.
# T-C=tumor growth delay in days (treatment minus control).
# Gross Log Kill=total number of logs of tumor cell kill produced by the given treatment regimen.
# Gross Kill=(T-C)/3.32*Td)
# Net Log Kill=the difference in logs between the tumor burden after the last treatment and the initial pretreatment burden. Net kill reflects the effectiveness of the overall therapy accounting for the growth of the tumor between individual treatments of the therapeutic regimen. Net kill allows valid comparisons of different treatment regimens, i.e., those with different durations of treatment that allow different amounts of tumor growth during therapy.
# Net Kill=[(T-C)-DRx]/(3.32*Td)
# (§5) All tumor-free survivors (cures) are excluded from the calculation of T-C and cell kill values. Thus, all calculated end points represent the response of the treatment failures.
# [2] = tested on: Mammary adenocarcinoma 16; assay: Mammary adenocarcinoma 16 (CCTM test); type: in vivo, mice; settings: SC PO, Days 1-16, 56 mg/kg
# Protocol: as §3, §4
# Survival is checked daily for each test group. Both the number dead and the number living are counted and recorded. All dead mice are autopsied to ascertain the probable cause of death (drug or tumor). Clinical signs are observed and recorded for all test groups. Individual body weights are recorded at least weekly as directed in the specific test protocol. Each tumor is measured with calipers as per the protocol (usually two to three times/week). […]
# This time may be calculated as:
# T,C=median time in days for the tumor in a given group to reach a predetermined evaluation size (usually 750 mg). […] These values are calculated by log/linear interpolation between the nearest tumor measurements on either side of the evaluation size. […]
# as §5
# BN leukemia = BN leukemia (CCLS test); type: in vivo, mice; settings: for % T/C: IV PO
# From the text: (§1) The two types of assays used were the standard CCTM test for solid tumors and the CCLS test for leukemia.
# The CCLS assay assesses the antitumor activity of a test agent by measurement of the treatment-induced increase in host lifespan. Only rapidly growing tumors that kill their respective hosts in less than 30 days are appropriate for life span assays.
# Test animals are appropriate Fl hybrid mice derived for the inbred strain of tumor origin. After the required mice are randomized, they receive implants (IP, IV, IC, IM, or SC) of appropriately diluted ascites fluid or dilutions of tumor brei on Day 0. A sample from the final inocula is incubated in thioglycolate media as a check for gross contamination of the tumor material. After tumor inoculation, the test mice are rerandomized and distributed to test groups as per the specific test protocol.
# (§2) Test agents are dissolved or suspended in any of several vehicles and are administered by the routes and treatment schedules specified on the test protocol. All animals are monitored for signs of acute toxicity and side effects.
# Survival is checked daily for each test group. Both the number dead and the number living are counted and recorded. All dead mice are autopsied to ascertain the probably cause of death (drug or tumor). Clinical signs are observed and recorded for all test groups. Group body weights are recorded at least weekly as directed in the specific test protocol.
# For most life span assays, any animal surviving more than 60 days is sacrificed and autopsied to determine the tumor burden present. It is possible that specific protocols involving unusual tumors or routes of tumor implantation will call for longer termination dates.
# Td=tumor volume doubling time (days), calculated from the slope of a log-linear least square fit of the survival time vs inoculum curve for titrated inocula of tumor cells in untreated mice.
# MLS=median life span, calculated by a method appropriate for grouped observations.
# NOTE: Some adjustments in these calculations are made to make comparisons with the appropriate control cage more accurate. The slope of the titration curve (least squares fit) is used to calculate the Td for the tumor, but the life span increases of the treated animals are based only on the MLS of the control cage with the same initial inoculum (not on the least square approximation from the titration curve). This in theory reduces any effects from dilution, etc.
# All tumor-free survivors (cures) are excluded from the calculation of MLS and cell kill values. Thus all calculated end points represent the response of the treatment failures.
# [3] = tested on: HCT-8 human colon xenograft; assay: HCT-8 human colon xenograft in nude mice (CCTM test); type: in vivo
# From the text: Doses just under the acutely lethal dose can be given indefinitely (for more than 30 days), during which the treated animals regain their initial weight loss.
# as §1
# The CCTM assay assesses the antitumor activity of a test agent by measurement of the treatment-induced delay of tumor growth. Tumor growth delay is used because, unlike T/C type assays, the measured parameter is […].
# Test animals are Fl hybrid mice derived from the inbred strain of tumor origin. […]
# as §2
# Survival is checked daily for each test group. Both the number dead and the number living are counted and recorded. […] Clinical signs are observed and recorded for all test groups. Individual body weights are recorded at least weekly as directed in the specific test protocol. Each tumor is measured with calipers as per the protocol (usually two to three times/week). […]
# Td=tumor volume doubling time (days), calculated from the slope of a long-linear least squares fit of the growth curve between 63 and 1000 mg for each control tumor. […]
smiles,measurement,setting,value
"Nc1ccc(C(=O)Nc2ccccc2N)cc1 [Substance A, 4-Amino-N-(2'-aminophenyl)-benzamide]",Surviving Animals,Lewis Lung Tumor; 1 × 240 mg/kg PO,5/5
same,Retardation in Growth of Tumor (Days),"Lewis Lung Tumor; 1 × 240 mg/kg PO, p = 0,018","3,1 Days"
same,Retardation in Growth of Tumor (toxic death),Lewis Lung Tumor; 2 × 180 mg/kg PO,toxic death
same,Surviving Animals,Lewis Lung Tumor; 2 × 180 mg/kg PO,0/5
same,Retardation in Growth of Tumor (toxic death),Lewis Lung Tumor; 4 × 120 mg/kg PO,toxic death
same,Surviving Animals,Lewis Lung Tumor; 4 × 120 mg/kg PO,0/5
same,Surviving Animals,"Lewis Lung Tumor; 9 × 60 mg/kg IP, controls 5/5",5/5
same,Retardation in Growth of Tumor (Days),"Lewis Lung Tumor; 9 × 60 mg/kg IP, p = 0,061","3,8 Days"
same,assessment of activity,"Lewis Lung Tumor; mouse, in vivo",moderate activity
same,inhibition of hair growth / topical antiproliferative action,growing hair follicle,clear inhibition of hair growth; also recorded: distinct antiproliferate action
same,% T/C,"[1]; SC PO, Days 3-24, 50 mg/kg",0%
same,cures,"[1]; SC PO, Days 3-24, 50 mg/kg, 6 out of 10 cures",6/10
same,(T-C) tumor growth delay,"[1]; SC PO, Days 25-36, 50 mg/kg",16 days
same,Cell Kill Net,"[1]; SC PO, Days 25-36, 50 mg/kg",1.6 logs
same,anticancer activity,[1]; mammary 25,significant anticancer activity has been demonstrated and confirmed
same,(T-C) tumor growth delay,[2],11 days
same,Cell Kill Gross,[2],3.0 log10
same,Cell Kill Net,[2],-1.2 logs
same,anticancer activity,BN leukemia; BN leukemia,significant anticancer activity has been demonstrated and confirmed
same,% T/C,"BN leukemia; Days 1-5, 20 mg/kg",356%
same,% T/C,"BN leukemia; Days 1-5, 30 mg/kg",430%
same,% T/C,"BN leukemia; Days 7-11, 14-18, 20 mg/kg",335%
same,% T/C,"BN leukemia; Days 7-11, 14-18, 21-25, 20 mg/kg",474%
same,% T/C,"BN leukemia; Days 7-11, 14-18, 21-25, 28-32, 35-39, 8 mg/kg",343%
same,anticancer activity,[3]; HCT-8 human colon tumor xenograft,significant anticancer activity has been demonstrated and confirmed
same,(T-C) tumor growth delay,"[3]; SC PO, Days 9-24, 69 mg/kg",13 days
